We go through two compounds from ChEMBL document CHEMBL1144207, “Molecular design of potent tyrosinase inhibitors having the bibenzyl skeleton” (Bioorg Med Chem Lett, 2008).

SMILES strings stand for the structures.

The assay concerns the target T1, Tyrosinase (Agaricus bisporus, UniProt O42713).
T1 sequence (O42713 whole entry): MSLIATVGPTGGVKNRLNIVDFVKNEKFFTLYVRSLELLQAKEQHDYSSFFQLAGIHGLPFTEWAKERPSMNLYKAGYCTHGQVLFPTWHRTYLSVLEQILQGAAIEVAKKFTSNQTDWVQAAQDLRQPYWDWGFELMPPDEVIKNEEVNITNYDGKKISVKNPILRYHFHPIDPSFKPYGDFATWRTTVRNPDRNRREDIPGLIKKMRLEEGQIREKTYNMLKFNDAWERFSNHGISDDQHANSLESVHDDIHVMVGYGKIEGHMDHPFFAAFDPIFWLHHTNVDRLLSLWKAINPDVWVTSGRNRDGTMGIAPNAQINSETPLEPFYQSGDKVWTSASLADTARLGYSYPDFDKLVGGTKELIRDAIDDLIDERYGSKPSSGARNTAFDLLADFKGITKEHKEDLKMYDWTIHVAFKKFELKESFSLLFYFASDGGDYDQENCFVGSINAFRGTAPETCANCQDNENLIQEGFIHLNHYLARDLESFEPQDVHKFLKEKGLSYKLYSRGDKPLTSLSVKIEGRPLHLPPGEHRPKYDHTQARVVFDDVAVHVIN
Description: Inhibition of mushroom tyrosinase

What is called IC50 is the concentration that inhibits the measured activity by half. High values mean lower potency, low ones higher potency. `Oc1ccc(CCc2ccc(O)cc2O[C@@H]2OC[C@@H](O)[C@H](O)[C@H]2O)c(O)c1`: half-maximal inhibition (IC50) was put at 1.6 µM. This lies in the single-digit micromolar range.

`Oc1ccc(CCc2ccc(O[C@@H]3OC[C@@H](O)[C@H](O)[C@H]3O)cc2O)c(O)c1`: the IC50 came to 0.43 µM.
